The values below come from patent US20250296971A1, “GASTRIC INHIBITORY PEPTIDE RECEPTOR LIGANDS” (priority 2021, published 2025).

*1 amine or outer side, *2 acyl side, *3 side chain or, on linkers, in order; H or OH if unused. Where a SMILES comes first, the peptide text is derived from it. Bridges are numbered along the chain shown (N, C = ends). Side-chain parts run from the residue outwards. [ ]: non-standard residue; d: D form. The star is where a group is joined. X2 = O=C(O)CN1CCN(CC(=O)O)CCN(CC(=O)N[C@@H](CCC(=O)NC[C@H](O)[C@@H](O)[C@H](O)[C@H](O)CO)C(=O)*)CCN(CC(=O)O)CC1; NH(1-deoxy-D-glucityl) = OC[C@@H](O)[C@@H](O)[C@H](O)[C@@H](O)CN*; DOTA = O=C(O)CN1CCN(CC(=O)O)CCN(CC(=O)*)CCN(CC(=O)O)CC1; Trp(5-Cl) = N[C@@H](Cc1c[nH]c2ccc(Cl)cc12)C(=O)O; Pyridine(2,6-diCH2) = c1cc(C[*:1])nc(C[*:2])c1; Pro(4R-NH2) = N[C@H]1CN[C@H](C(=O)O)C1; Glutaryl = O=C(CCCC(=O)[*:2])[*:1]; PEG6 = NCCOCCOCCOCCOCCOCCOCCC(=O)O; Hyp = O=C(O)[C@@H]1C[C@@H](O)CN1; X1 = O=C(CN1CCC(N[*:1])CC1)[*:2]; Api = NC1(C(=O)O)CCNCC1; Thp = NC1(C(=O)O)CCOCC1; AEEA = NCCOCCOCC(=O)O A value given as a limit tells only on which side of the number the result lay.

In this experiment the target is T1, GIPR (CHO-K1-hGIPR cells) (Homo sapiens, UniProt P48546).
T1 construct: host or cells: CHO-K1
T1 sequence (P48546 22-466): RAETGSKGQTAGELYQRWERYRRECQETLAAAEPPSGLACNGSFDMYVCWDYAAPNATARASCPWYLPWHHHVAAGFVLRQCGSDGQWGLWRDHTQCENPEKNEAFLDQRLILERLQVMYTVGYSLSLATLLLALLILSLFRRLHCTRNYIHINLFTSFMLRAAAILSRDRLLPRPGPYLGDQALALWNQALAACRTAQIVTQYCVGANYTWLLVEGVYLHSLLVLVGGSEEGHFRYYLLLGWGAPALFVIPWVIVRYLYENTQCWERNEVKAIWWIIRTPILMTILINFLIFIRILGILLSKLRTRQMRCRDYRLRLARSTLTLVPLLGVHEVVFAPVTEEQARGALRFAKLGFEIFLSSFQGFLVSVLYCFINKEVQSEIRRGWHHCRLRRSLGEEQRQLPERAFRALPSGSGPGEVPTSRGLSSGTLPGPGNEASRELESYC
Kind of experiment: FACS binding assay. Conditions: competition with 20 nM GIP-057, 4° C., 1 hour, read-out: pIC50 Category (converted). In outline: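 Steps: detach CHO-K1-hGIPR cells (Accutase); wash in PBS/1% FCS; adjust to 500.000 cells per mL; wash ice-cold; incubate APC-streptavidin 1 μg/mL, 30 min on ice; wash twice; acquire on flow cytometer; fit MFI-concentration data with a four-parameter logistic model.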
(In general: In flow cytometry, cells or beads pass a laser one at a time.)
Take `CC[C@H](C)[C@@H]1NC(=O)[C@H](CC(C)C)NC(=O)C2(CCOCC2)NC(=O)[C@@H](NC(=O)[C@@H](CC(C)C)NC(=O)[C@H](CCC(=O)O)NC(=O)[C@@H]2C[C@@H](N)CN2C(=O)[C@H](Cc2c[nH]c3ccc(Cl)cc23)NC(=O)[C@H](Cc2c[nH]c3ccccc23)NC(=O)[C@H](CC(=O)O)NC(=O)[C@@H](CCC(=O)NC[C@H](O)[C@@H](O)[C@H](O)[C@H](O)CO)NC(=O)CCOCCOCCOCCOCCOCCOCCNC(=O)CN2CCN(CC(=O)O)CCN(CC(=O)O)CCN(CC(=O)O)CC2)CSCc2cccc(n2)CSC[C@@H](C(=O)NC2CCN(CC(=O)N[C@H](CCC(=O)NC[C@H](O)[C@@H](O)[C@H](O)[C@H](O)CO)C(N)=O)CC2)NC1=O` [GIP-037, DOTA-PEG6-glu(AGLU)-Asp-Trp-5Clw-Tap-Glu-leu-[Cys(2Lut)-Thp-Leu-Ile-Cys]-APAc-glu(AGLU)-NH2] ({DOTA-PEG6}-[dE](NH(1-deoxy-D-glucityl))DW[Trp(5-Cl)][Pro(4R-NH2)]E[dL]C[Thp]LIC[X1][dE](NH(1-deoxy-D-glucityl))-NH2; linker 8-12 via Pyridine(2,6-diCH2)): the IC50 was less than 10 nM.

For the compound `CC[C@H](C)[C@@H]1NC(=O)[C@H](CC(C)C)NC(=O)C2(CCN(C(=O)CN3CCN(CC(=O)O)CCN(CC(=O)O)CCN(CC(=O)O)CC3)CC2)NC(=O)[C@@H](NC(=O)[C@@H](CC(C)C)NC(=O)[C@H](CCC(=O)O)NC(=O)[C@@H]2C[C@@H](N)CN2C(=O)[C@H](Cc2c[nH]c3ccc(Cl)cc23)NC(=O)[C@H](Cc2c[nH]c3ccccc23)NC(=O)[C@H](CC(=O)O)NC(=O)CCCC(=O)NC[C@H](O)[C@@H](O)[C@H](O)[C@H](O)CO)CSCc2cccc(n2)CSC[C@H](C(=O)NC2CCN(CC(=O)N[C@H](CCC(=O)NC[C@H](O)[C@@H](O)[C@H](O)[C@H](O)CO)C(N)=O)CC2)NC1=O` [GIP-038, AGLU-Glutar-Asp-Trp-5Clw-Tap-Glu-leu-[Cys(2Lut)-Apc(DOTA)-Leu-Ile-cys]-APAc-glu(AGLU)-NH2] ({NH(1-deoxy-D-glucityl)-Glutaryl}-DW[Trp(5-Cl)][Pro(4R-NH2)]E[dL]C[Api](DOTA)LI[dC][X1][dE](NH(1-deoxy-D-glucityl))-NH2; linker 7-11 via Pyridine(2,6-diCH2)), the IC50 is less than 10 nM.

`CC[C@H](C)[C@@H]1NC(=O)[C@H](CC(C)C)NC(=O)C2(CCN(C(=O)CN3CCN(CC(=O)O)CCN(CC(=O)O)CCN(CC(=O)O)CC3)CC2)NC(=O)[C@@H](NC(=O)[C@@H](CC(C)C)NC(=O)[C@H](CCC(=O)O)NC(=O)[C@@H]2C[C@@H](O)CN2C(=O)[C@H](Cc2c[nH]c3ccc(Cl)cc23)NC(=O)[C@H](Cc2c[nH]c3ccccc23)NC(=O)[C@H](CC(=O)O)NC(=O)CN2CCC(NC(=O)CCCC(=O)NC[C@H](O)[C@@H](O)[C@H](O)[C@H](O)CO)CC2)CSCc2cccc(n2)CSC[C@@H](C(=O)N[C@H](CCCCNC(=O)CCOCCOCCOCCOCCOCCOCCOCCOCCOCCOCCOCCOCCOCCOCCOCCOCCOCCOCCOCCOCCOCCOCCOCCOCCOCCOCCOCCOCCOCCOCCOCCOCCOCCOCCOCCOCCOC)C(N)=O)NC1=O` [GIP-039, AGLU-Glutar-APAc-Asp-Trp-5Clw-Hyp-Glu-leu-[Cys(2Lut)-Apc(DOTA)-Leu-Ile-Cys]-lys(MeO36PEG)-NH2]: the IC50 was 10 to 79.4 nM.

`CCOCCOCCOCCOCCOCCOCCOCCOCCOCCOCCOCCOCCOCCOCCOCCOCCOCCOCCOCCOCCOCCOCCOCCOCCOCCOCCOCCOCCOCCOCCOCCOCCOCCOCCOCCOCCOCC(=O)NC1CCN(CC(=O)N[C@@H](CC(=O)O)C(=O)N[C@@H](Cc2c[nH]c3ccccc23)C(=O)N[C@@H](Cc2c[nH]c3ccc(Cl)cc23)C(=O)N2C[C@H](O)C[C@H]2C(=O)N[C@@H](CCC(=O)O)C(=O)N[C@H](CC(C)C)C(=O)N[C@H]2CSCc3cccc(n3)CSC[C@@H](C(=O)NC3CCN(CC(=O)N[C@H](CCC(=O)NC[C@H](O)[C@@H](O)[C@H](O)[C@H](O)CO)C(N)=O)CC3)NC(=O)[C@H]([C@@H](C)CC)NC(=O)[C@H](CC(C)C)NC(=O)C3(CCN(C(=O)CN4CCN(CC(=O)O)CCN(CC(=O)O)CCN(CC(=O)O)CC4)CC3)NC2=O)CC1` [GIP-041, MeO36PEG-APAc-Asp-Trp-5Clw-Hyp-Glu-leu-[Cys(2Lut)-Apc(DOTA)-Leu-Ile-Cys]-APAc-glu(AGLU)-NH2]: the IC50 was 10 to 79.4 nM.

On to `CCOCCOCCOCCOCCOCCOCCOCCOCCOCCOCCOCCOCCOCCOCCOCCOCCOCCOCCOCCOCCOCCOCCOCCOCCOCCOCCOCCOCCOCCOCCOCCOCCOCCOCCOCCOCCOCC(=O)NC1CCN(CC(=O)N[C@@H](CC(=O)O)C(=O)N[C@@H](Cc2c[nH]c3ccccc23)C(=O)N[C@@H](Cc2c[nH]c3ccc(Cl)cc23)C(=O)N2C[C@H](N)C[C@H]2C(=O)N[C@@H](CCC(=O)O)C(=O)N[C@H](CC(C)C)C(=O)N[C@H]2CSCc3cccc(n3)CSC[C@@H](C(=O)NC3CCN(CC(=O)N[C@H](CCC(=O)NC[C@H](O)[C@@H](O)[C@H](O)[C@H](O)CO)C(N)=O)CC3)NC(=O)[C@H]([C@@H](C)CC)NC(=O)[C@H](CC(C)C)NC(=O)C3(CCN(C(=O)CN4CCN(CC(=O)O)CCN(CC(=O)O)CCN(CC(=O)O)CC4)CC3)NC2=O)CC1` [GIP-042, MeO36PEG-APAc-Asp-Trp-5Clw-Tap-Glu-leu-[Cys(2Lut)-Apc(DOTA)-Leu-Ile-Cys]-APAc-glu(AGLU)-NH2], for which the IC50 is 10 to 79.4 nM.

As to `CC[C@H](C)[C@@H]1NC(=O)[C@H](CC(C)C)NC(=O)C2(CCN(C(=O)[C@H](CCC(=O)NC[C@H](O)[C@@H](O)[C@H](O)[C@H](O)CO)NC(=O)CN3CCN(CC(=O)O)CCN(CC(=O)O)CCN(CC(=O)O)CC3)CC2)NC(=O)[C@@H](NC(=O)[C@@H](CC(C)C)NC(=O)[C@H](CCC(=O)O)NC(=O)[C@@H]2C[C@@H](O)CN2C(=O)[C@H](Cc2c[nH]c3ccc(Cl)cc23)NC(=O)[C@H](Cc2c[nH]c3ccccc23)NC(=O)[C@H](CC(=O)O)NC(=O)CN2CCC(NC(=O)CCCC(=O)NC[C@H](O)[C@@H](O)[C@H](O)[C@H](O)CO)CC2)CSCc2cccc(n2)CSC[C@@H](C(=O)NC2CCN(CC(=O)N[C@H](CCC(=O)NC[C@H](O)[C@@H](O)[C@H](O)[C@H](O)CO)C(N)=O)CC2)NC1=O` [GIP-043, AGLU-Glutar-APAc-Asp-Trp-5Clw-Hyp-Glu-leu-[Cys(2Lut)-Apc(DOTA-glu(AGLU))-Leu-Ile-Cys]-APAc-glu(AGLU)-NH2] ({NH(1-deoxy-D-glucityl)-Glutaryl}-[X1]DW[Trp(5-Cl)][Hyp]E[dL]C[Api](X2)LIC[X1][dE](NH(1-deoxy-D-glucityl))-NH2; linker 8-12 via Pyridine(2,6-diCH2)), the IC50 was less than 10 nM.

Turning to `CC[C@H](C)[C@@H]1NC(=O)[C@H](CC(C)C)NC(=O)C2(CCN(C(=O)CCCC(=O)NC[C@H](O)[C@@H](O)[C@H](O)[C@H](O)CO)CC2)NC(=O)[C@@H](NC(=O)[C@@H](CC(C)C)NC(=O)[C@H](CCC(=O)O)NC(=O)[C@@H]2C[C@@H](N)CN2C(=O)[C@H](Cc2c[nH]c3ccc(Cl)cc23)NC(=O)[C@H](Cc2c[nH]c3ccccc23)NC(=O)[C@H](CC(=O)O)NC(=O)[C@@H](CCC(=O)NC[C@H](O)[C@@H](O)[C@H](O)[C@H](O)CO)NC(=O)COCCOCCNC(=O)CN2CCN(CC(=O)O)CCN(CC(=O)O)CCN(CC(=O)O)CC2)CSCc2cccc(n2)CSC[C@@H](C(=O)NC2CCN(CC(=O)N[C@H](CCC(=O)NC[C@H](O)[C@@H](O)[C@H](O)[C@H](O)CO)C(N)=O)CC2)NC1=O` [GIP-044, DOTA-02Oc-glu(AGLU)-Asp-Trp-5Clw-Tap-Glu-leu-[Cys(2Lut)-Apc(AGLU-Glutar)-Leu-Ile-Cys]-APAc-glu(AGLU)-NH2] ({DOTA-AEEA}-[dE](NH(1-deoxy-D-glucityl))DW[Trp(5-Cl)][Pro(4R-NH2)]E[dL]C[Api]([Glutaryl-NH(1-deoxy-D-glucityl)])LIC[X1][dE](NH(1-deoxy-D-glucityl))-NH2; linker 8-12 via Pyridine(2,6-diCH2)), the IC50 was less than 10 nM.

Consider `CC[C@H](C)[C@@H]1NC(=O)[C@H](CC(C)C)NC(=O)C2(CCN(C(=O)CCCC(=O)NC[C@H](O)[C@@H](O)[C@H](O)[C@H](O)CO)CC2)NC(=O)[C@@H](NC(=O)[C@@H](CC(C)C)NC(=O)[C@H](CCC(=O)O)NC(=O)[C@@H]2C[C@@H](N)CN2C(=O)[C@H](Cc2c[nH]c3ccc(Cl)cc23)NC(=O)[C@H](Cc2c[nH]c3ccccc23)NC(=O)[C@H](CC(=O)O)NC(=O)[C@@H](CCC(=O)NC[C@H](O)[C@@H](O)[C@H](O)[C@H](O)CO)NC(=O)CN2CCN(CC(=O)O)CCN(CC(=O)O)CCN(CC(=O)O)CC2)CSCc2cccc(n2)CSC[C@@H](C(=O)NC2CCN(CC(=O)N[C@H](CCC(=O)NC[C@H](O)[C@@H](O)[C@H](O)[C@H](O)CO)C(N)=O)CC2)NC1=O` [GIP-045, DOTA-glu(AGLU)-Asp-Trp-5Clw-Tap-Glu-leu-[Cys(2Lut)-Apc(AGLU-Glutar)-Leu-Ile-Cys]-APAc-glu(AGLU)-NH2] ({DOTA}-[dE](NH(1-deoxy-D-glucityl))DW[Trp(5-Cl)][Pro(4R-NH2)]E[dL]C[Api]([Glutaryl-NH(1-deoxy-D-glucityl)])LIC[X1][dE](NH(1-deoxy-D-glucityl))-NH2; linker 8-12 via Pyridine(2,6-diCH2)), for which the IC50 was less than 10 nM.
